According to patent EP1808169B1, “Polyhydroxylated aromatic compounds for the treatment of amyloidosis and alpha-synuclein fibril diseases” (priority 1999, dated 2001):
Marks after values point to notes of the source that are not given here.

Columns and labels:
Type in all cases: biochemical
Aβ 1-42 amyloid fibrils = test: Thioflavin T fluorometry: disassembly/disruption of pre-formed Aβ 1-42 amyloid fibrils; settings: for Fluorescence inhibition, %, at the Aβ 1-42:compound w/w ratios given: overnight (~18 hours) at 37°C, pH 7.0, mean of triplicate ± standard deviation
Description: For the first study, 1 mg of Aβ 1-42 (Bachem Inc., Torrance, CA, USA) was dissolved in 1.0 ml of double distilled water (1 mg/ml solution). 25 µM of Aβ 1-42 was then incubated overnight (~18 hours) at 37°C, in the absence or presence of 100µg/ml of the following compounds: 1) EDTA (Sigma Chemical Company, St. Louis, MO, USA), 2) myricetin (Acros, Somerville, New Jersey, USA), 3) exifone (Acros) 4) pyrogallol (Sigma), 5) tannic acid (Acros), 6) pyrocatechol (Acros), 7) quercetin (Sigma), 8) ellagic acid (Acros), 9) 1,2,4-benzenetriol (Acros), 10) 5-hydroxydopamine (Acros), 11) gallamide hydrate (Acros), 12) gallic acid (Sigma), 13) ethyl gallate (Acros), 14) quinic acid (Acros), 15) propyl gallate (Sigma), and 16) phloroglucide (Acros), each in the presence of 150 mM Tris HCl, 10 mM NaCl (pH 7.0) with 0.02% sodium azide. In this study, the Aβ 1-42:compound weight ratio was 1:1.
For the second study, 1 mg of Aβ 1-42 (Bachem) was dissolved in 1.0 ml of double distilled water (1 mg/ml solution). 25 µM of Aβ 1-42 was then incubated overnight (~18 hours) at 37°C, in the absence or presence of 50µg/ml of the following compounds: 1) gallic acid, 2) ethyl gallate, 3) quinic acid, 4) gallamide trihydrate, 5) ellagic acid, 6) propyl gallate, and 7) pyrogallol, each in the presence of 150 mM Tris HCl, 10 mM NaCl (pH 7.0) with 0.02% sodium azide. In this study, the Aβ 1-42:compound weight ratio was 2:1.
Thioflavin T is known to bind to fibrillar amyloid proteins, and an increase in fluorescence correlates with an increase in amyloid fibril formation, whereas a decrease in fluorescence correlates with a decrease in amyloid fibrils due to disassembly and/or disruption. The Alzheimer's Aβ protein (1-42) when placed in solution, such as distilled water, tends to spontaneously form amyloid fibrils. Using this sensitive assay, any decreases or increases in fluorescence was previously shown to correlate with a decrease or increase in the amount of amyloid fibrils (see the documents cited above), allowing one to identify and quantitate the extent of potential inhibitors and/or enhancers of Alzheimer's Aβ 1-42 amyloid fibrils.
To assess the effects of each compound on potential disassembly/ disruption of preformed Aβ 1-42 fibrils, 50 µl of Aβ 1-42 with or without test compounds (described above) were added to 1.2 ml of 100µM Thioflavin T (Sigma) in 50mM NaH2PO4 (pH 6.0) for fluorometry readings. […] Fluorescence emission at 482 nm was measured on a Turner instrument-model 450 fluorometer at an excitation wavelength of 450 nm. For each determination, the fluorometer was calibrated by zeroing in the presence of the Thioflavin T reagent alone, and by setting the 50 ng/ml riboflavin (Sigma Chemical Co., St. Louis, MO) in the Thioflavin T reagent to 1800 fluorescence units. All fluorescence determinations were based on these references and any fluorescence given off by any of the compounds in the presence of the Thioflavin T reagent was always subtracted from all pertinent readings.
For all fibrillogenesis studies utilizing Thioflavin T fluorometry, as disclosed herein, comparisons of amyloid protein in the presence or absence of test compounds were based on paired Student's t tests with data shown as the mean of triplicate measurements ± standard deviation.

Aβ 1-40 amyloid fibrils = test: Modified Congo red-Aβ spectrophotometric assay: disaggregation of pre-formed Aβ 1-40 fibrils (3 days incubation); settings: Aβ:compound weight ratio 2:1; fibrillized Aβ 1-40 incubated with compound 3 days at 37°C in TBS pH 7.0; Δ absorbance at 540 nm; triplicate
Description: In this study, a Congo red-Aβ spectrophotometric assay (Klunk et al., Anal. Biochem. 266:66-76, 1999) was modified to determine the effectiveness of polyhydroxylated aromatic compounds on the disaggregation of pre-formed Aβ 1-40 amyloid fibrils. For this assay, 1 mg of Aβ 1-40 (Bachem) was incubated for 4 days in distilled water at 37°C to spontaneously produce amyloid fibrils. 25pM of fibrillized Aβ 1-40 was then incubated in triplicate with various test compounds for 3 days at 37°C in Tris-buffered saline (TBS)(100 mM Tris; 50 mM NaCl; pH 7.0, with 0.02% sodium azide), at an Aβ:compound weight ratio of 2:1. Following incubation, 50µl of 360 µM Congo red (Sigma) in distilled water was then added to 250 µl of each incubation mixture, giving a final Aβ:Congo red molar ratio of 1:3. After 10 minutes, the absorbance at 405 nm (reference wavelength to account for the absorbance of Congo red alone at 540 nm) and 540 nm (sample absorbance where "sample" refers to Aβ alone, test compound alone, or Aβ plus test compound, all in the presence of Congo red) was determined using a Biorad Model 550 BLISA Plate Reader (Biorad, Hercules, CA, USA). The absorbance at wavelength 405 nm was automatically subtracted by the ELISA plate reader from the absorbance at wavelength 540 nm (difference is referred to as Δ absorbance)(see Klunk et al. cited above). Therefore, the Δ absorbance reading at 540 nm was proportional to the amount of aggregated Aβ left in solution (Klunk et al.).
For all experiments involving test compounds, the Δ absorbance reading at 540 nm of the test compound alone (in the absence of Aβ), was always subtracted from the corresponding Δ absorbance reading at 540 nm of the test compound in the presence of Aβ. Using this modification of the method of Klunk et al., the use of a greater final concentration of Congo red, i.e. 60µM instead of 14µM, in the presence of fibrillar Aβ gave an overall absorbance at 540 nm that was always below 1.0 Absorbance Unit (AU), and well within the linear absorbance range.
The following polyhydroxylated aromatic containing compounds were tested using the above described Congo red-Aβ spectrophotometric assay to determine their effectiveness on disaggregation of pre-formed Aβ 1-40 amyloid fibrils: 1) gallic acid, 2) ethyl gallate, 3) quinic acid, 4) gallamide trihydrate, 5) ellagic acid, 6) propyl gallate, and 7) pyrogallol.

human amylin [1] = target: T1, human amylin (Homo sapiens, UniProt P10997); test: Thioflavin T fluorometry: disassembly/disruption of islet amyloid (amylin) fibrils; settings: 25 µM human amylin, 100µg/ml compound, amylin:compound weight ratio 1:1, overnight (~18 hours) at 37°C, pH 7.0; read-out: Fluorescence inhibition, %
T1 construct: This amyloid protein involved consists of a 37 amino acid protein known as islet amyloid polypeptide or amylin; purchased Bachem
T1 sequence (P10997 34-70 limits assumed): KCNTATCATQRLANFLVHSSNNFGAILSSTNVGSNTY

human amylin [2] = target: T1, human amylin; test: Congo red staining of amylin fibrils on gelatin-coated slides (polarized light); settings: result in words; amylin + compound after overnight incubation, compared with amylin alone
Description: Following Thioflavin T fluorometry readings as described in Example 1, 5µl aliquots of amylin only, amylin + myricetin, amylin + exifone, and amylin + tannic acid were also taken, allowed to air dry overnight on gelatin-coated slides, and stained with Congo red as previously described (Castillo et al., Diabetes 47:612-620, 1998).

[3] = Aβ 1-42:compound w/w ratio 2:1, 25 µM Aβ 1-42, 50µg/ml compound
[4] = Aβ 1-42:compound w/w ratio 1:1, 25 µM Aβ 1-42, 100µg/ml compound

Row | Structure (SMILES) | Fluorescence inhibition, %, at the Aβ 1-42:compound w/w ratios given (Aβ 1-42 amyloid fibrils; [3]) [%] | Decrease in absorbance, % (Aβ 1-40 amyloid fibrils) | also measured
1 | O=C(O)CN(CCN(CC(=O)O)CC(=O)O)CC(=O)O [EDTA, reference compound] |  |  | disassembly/disruption of Aβ 1-42 amyloid fibrils (Aβ 1-42 amyloid fibrils; result in words, 100µg/ml compound, 25 µM Aβ 1-42, weight ratio 1:1, overnight at 37°C): no significant disassembly/disruption
2 | O=c1oc2c(O)c(O)cc3c(=O)oc4c(O)c(O)cc1c4c23 [Ellagic acid, ellagic acid] | 62 ± 3.9 | 54 ± 2.8% | 
3 | CCOC(=O)c1cc(O)c(O)c(O)c1 [Ethyl gallate, ethyl gallate] | 30 ± 3.7 | 28 ± 5.0% | 
4 | O=C(c1cc(O)c(O)c(O)c1)c1ccc(O)c(O)c1O [Exifone, exifone] |  |  | Fluorescence inhibition, %, at the Aβ 1-42:compound w/w ratios given (Aβ 1-42 amyloid fibrils; [4]): 93 ± 1.4%; inhibition at 100 µg/mL (human amylin [1]): 99.1 ± 0.5%; Congo red staining (human amylin [2]): marked decrease in Congo red staining
5 | NC(=O)c1cc(O)c(O)c(O)c1.O.O.O [Gallamide trihydrate, gallamide trihydrate] | 60 ± 2.2 | 31 ± 1.9% | 
6 | O=c1c(O)c(-c2cc(O)c(O)c(O)c2)oc2cc(O)cc(O)c12 [Myricetin, myricetin] |  |  | inhibition at 100 µg/mL (human amylin [1]): 97.4 ± 0.3%; Congo red staining (human amylin [2]): marked decrease in Congo red staining
7 | Oc1cc(O)cc(-c2c(O)cc(O)cc2O)c1 [Phloroglucide, phloroglucide] |  |  | Fluorescence inhibition, %, at the Aβ 1-42:compound w/w ratios given (Aβ 1-42 amyloid fibrils; [4]): 30 ± 0.6%
8 | CCCOC(=O)c1cc(O)c(O)c(O)c1 [Propyl gallate, propyl gallate] | 38 ± 4.8 | 17 ± 7.3 % | 
9 | Oc1cccc(O)c1O [Pyrogallol, pyrogallol] | 72 ± 3.8 | 63 ± 3.4% | 
10 | O=C(O)[C@]1(O)C[C@@H](O)[C@@H](O)[C@H](O)C1 [Quinic acid, quinic acid] | 0.5 ± 3.9 | 0 + 5.0** % | 
